One block for each molecule: values may come before it.
System: 354836-022-R-J1-PDC multicell spheroid viability
Assay: Anticancer human tumor 354836-022-R-J1-PDC patient-derived head and neck squamous cell carcinoma cell line growth inhibition [PI3K]
Settings: for viability, T/C: stronger effect = lower value
Method in brief: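 We assembled tumor spheroids that included a stromal compartment of HUVEC and MSCs, then exposed them to targeted agents alone and together with PI3K pathway inhibitors. Concentration series descended by half-log from clinically achievable Cmax levels. Viability served as the endpoint.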

[1] = curve of first compound, second compound 0.0316 µM
[2] = curve of first compound, second compound 0.1 µM
[3] = curve of first compound, second compound 0.316 µM
[4] = curve of first compound, second compound 1 µM
[5] = curve of first compound, second compound 3.16 µM
[6] = curve of first compound, second compound 10 µM
[7] = second compound 0.0316 µM, first compound 0.0316 µM
[8] = second compound 0.0316 µM, first compound 0.1 µM
[9] = second compound 0.0316 µM, first compound 0.316 µM
[10] = second compound 0.0316 µM, first compound 1 µM
[11] = second compound 0.0316 µM, first compound 3.16 µM
[12] = second compound 0.0316 µM, first compound 10 µM
[13] = second compound 0.1 µM, first compound 0.0316 µM
[14] = second compound 0.1 µM, first compound 0.1 µM
[15] = second compound 0.1 µM, first compound 0.316 µM
[16] = second compound 0.1 µM, first compound 1 µM
[17] = second compound 0.1 µM, first compound 3.16 µM
[18] = second compound 0.1 µM, first compound 10 µM
[19] = second compound 0.316 µM, first compound 0.0316 µM
[20] = second compound 0.316 µM, first compound 0.1 µM
[21] = second compound 0.316 µM, first compound 0.316 µM
[22] = second compound 0.316 µM, first compound 1 µM
[23] = second compound 0.316 µM, first compound 3.16 µM
[24] = second compound 0.316 µM, first compound 10 µM
[25] = second compound 1 µM, first compound 0.0316 µM
[26] = second compound 1 µM, first compound 0.1 µM
[27] = second compound 1 µM, first compound 0.316 µM
[28] = second compound 1 µM, first compound 1 µM
[29] = second compound 1 µM, first compound 3.16 µM
[30] = second compound 1 µM, first compound 10 µM
[31] = second compound 3.16 µM, first compound 0.0316 µM
[32] = second compound 3.16 µM, first compound 0.1 µM
[33] = second compound 3.16 µM, first compound 0.316 µM
[34] = second compound 3.16 µM, first compound 1 µM
[35] = second compound 3.16 µM, first compound 3.16 µM
[36] = second compound 3.16 µM, first compound 10 µM
[37] = second compound 10 µM, first compound 0.0316 µM
[38] = second compound 10 µM, first compound 0.1 µM
[39] = second compound 10 µM, first compound 0.316 µM
[40] = second compound 10 µM, first compound 1 µM
[41] = second compound 10 µM, first compound 3.16 µM
[42] = second compound 10 µM, first compound 10 µM
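Further: spheroids exposed to agents for seven days before the viability read.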

- IC50 (curve of compound): > 3 µM
SMILES: Cn1cnc2c(F)c(Nc3ccc(Br)cc3Cl)c(C(=O)NOCCO)cc21
- viability, T/C (compound 0.00949 µM): 90% [middle of 4 runs]
- viability, T/C (compound 0.03 µM): 85.5% [middle of 4 runs]
- viability, T/C (compound 0.0949 µM): 91.4% [middle of 4 runs]
- viability, T/C (compound 0.3 µM): 74.8% [middle of 4 runs]
- viability, T/C (compound 0.949 µM): 80.2% [middle of 4 runs]
- viability, T/C (compound 3 µM): 58.4% [middle of 4 runs]

- IC50 [1]: > 10 µM
- IC50 [2]: > 10 µM
- IC50 [3]: > 10 µM
- IC50 [4]: > 10 µM
- IC50 [5]: > 10 µM
- IC50 [6]: > 10 µM
SMILES: CC(Cn1ccc(-c2ccc(C#N)c(Cl)c2)n1)NC(=O)c1cc(C(C)O)[nH]n1 (stereo not drawn) + CC(Nc1ncnc2nc[nH]c12)c1cc2cccc(Cl)c2c(=O)n1-c1ccccc1
- viability, T/C [7]: 99.3%
- viability, T/C [8]: 91.8%
- viability, T/C [9]: 96.6%
- viability, T/C [10]: 112%
- viability, T/C [11]: 97.7%
- viability, T/C [12]: 84.4%
- viability, T/C [13]: 87.8%
- viability, T/C [14]: 102%
- viability, T/C [15]: 89.6%
- viability, T/C [16]: 104%
- viability, T/C [17]: 85%
- viability, T/C [18]: 93.3%
- viability, T/C [19]: 91.2%
- viability, T/C [20]: 90.6%
- viability, T/C [21]: 97.6%
- viability, T/C [22]: 87.9%
- viability, T/C [23]: 101%
- viability, T/C [24]: 89.1%
- viability, T/C [25]: 106%
- viability, T/C [26]: 91.4%
- viability, T/C [27]: 93.1%
- viability, T/C [28]: 108%
- viability, T/C [29]: 83.5%
- viability, T/C [30]: 78.8%
- viability, T/C [31]: 113%
- viability, T/C [32]: 96.8%
- viability, T/C [33]: 95%
- viability, T/C [34]: 97.2%
- viability, T/C [35]: 90.7%
- viability, T/C [36]: 83.7%
- viability, T/C [37]: 96.5%
- viability, T/C [38]: 93.2%
- viability, T/C [39]: 83.8%
- viability, T/C [40]: 96.9%
- viability, T/C [41]: 95.2%
- viability, T/C [42]: 75.7%

- IC50 (curve of compound): 319 nM [middle of 4 runs]
SMILES: CC(C)NCC(C(=O)N1CCN(c2ncnc3c2C(C)CC3O)CC1)c1ccc(Cl)cc1 (stereo not drawn)
- viability, T/C (compound 0.0316 µM): 96.5% [middle of 4 runs]
- viability, T/C (compound 0.1 µM): 71% [middle of 4 runs]
- viability, T/C (compound 0.316 µM): 54.1% [middle of 4 runs]
- viability, T/C (compound 1 µM): 24.7% [middle of 4 runs]
- viability, T/C (compound 3.16 µM): 18% [middle of 4 runs]
- viability, T/C (compound 10 µM): 14.2% [middle of 4 runs]

- IC50 [1]: > 10 µM
- IC50 [2]: > 10 µM
- IC50 [3]: > 10 µM
- IC50 [4]: > 10 µM
- IC50 [5]: > 10 µM
- IC50 [6]: > 10 µM
SMILES: CC1(C)CCC(CN2CCN(c3ccc(C(=O)NS(=O)(=O)c4ccc(NCC5CCOCC5)c([N+](=O)[O-])c4)c(Oc4cnc5[nH]ccc5c4)c3)CC2)=C(c2ccc(Cl)cc2)C1 + CC(Nc1ncnc2nc[nH]c12)c1cc2cccc(Cl)c2c(=O)n1-c1ccccc1
- viability, T/C [7]: 92.4%
- viability, T/C [8]: 78%
- viability, T/C [9]: 85.5%
- viability, T/C [10]: 91.7%
- viability, T/C [11]: 71.3%
- viability, T/C [12]: 110%
- viability, T/C [13]: 81.3%
- viability, T/C [14]: 89.1%
- viability, T/C [15]: 97.8%
- viability, T/C [16]: 99.5%
- viability, T/C [17]: 67.2%
- viability, T/C [18]: 93%
- viability, T/C [19]: 86.3%
- viability, T/C [20]: 105%
- viability, T/C [21]: 103%
- viability, T/C [22]: 97.7%
- viability, T/C [23]: 64.1%
- viability, T/C [24]: 93%
- viability, T/C [25]: 106%
- viability, T/C [26]: 92.8%
- viability, T/C [27]: 93.4%
- viability, T/C [28]: 80.9%
- viability, T/C [29]: 66.4%
- viability, T/C [30]: 87.2%
- viability, T/C [31]: 89.1%
- viability, T/C [32]: 106%
- viability, T/C [33]: 95.2%
- viability, T/C [34]: 85.6%
- viability, T/C [35]: 60.8%
- viability, T/C [36]: 93.5%
- viability, T/C [37]: 90.9%
- viability, T/C [38]: 87%
- viability, T/C [39]: 90.2%
- viability, T/C [40]: 82.2%
- viability, T/C [41]: 53%
- viability, T/C [42]: 76.2%

Reference: PubChem BioAssay AID1963981 (Molecular Pharmacology Branch, DTP, NCI, 2024)
